Measurements published in US20140228430A1, “Method of Accelerating Corneal Wound Healing” (Alcon Research, Ltd., priority 2010, published 2014).

Test system: Rat Model of Corneal Injury
Assay: Rat model of corneal injury (corneal epithelial wound closure)
Assay type: in vivo
Conditions: topical ocular 5 μl every 2 hrs for first 8 hrs, female Lewis rats, compared with positive control 0.4% HA; for normalized number of completely healed eyes (Healed 24 hours n=10): number/10 eyes
Description: Female Lewis rats (175-200 g) were anesthetized with a xylazine/ketamine cocktail (5 mg/kg and 50 mg/kg respectively). A 3 mm diameter circle was superficially demarcated on the central cornea using a 3 mm trephine. Using a corneal rust ring remover (AlgerbrushΠ Alger Co.) tipped with a 1 mm steel burr; the corneal epithelium was removed to the basement membrane within the established 3 mm boundary Immediately following epithelial removal, the corneas were topically stained with 2% sodium fluorescein (Alcon), washed with balanced saline (BSS) and Time 0 hrs images acquired. After 24 hrs, animals were again anesthetized and Time 24 hrs images were acquired.
Immediately after acquisition of Time 0 images, test articles (5 μl) were topically administered to the ocular surface. Animals received topical administration every 2 hrs for the first 8 hrs of the 24 hrs study time. A 0.4% solution of Hyaluronic Acid (HA) was prepared in phosphate-buffered saline (PBS). Compounds 1 and 5 were prepared in PBS and stored at −70° C. until use. During dosing, compounds were stored at 4° C.
Anesthetized rats (Time 0: xylazine/ketamine; Time 24 hrs: 5% isoflurane gas). The area of the cornea devoid of epithelial cells was stained by topical application of a 2% sodium fluorescein solution (Alcon), followed 10 seconds later with a thorough rinsing with BSS. Images from stained eyes were collected with a Canon digital camera fitted with a macro and close-up lens such that the cornea filled almost the entire image field. A continuous and flash illumination was provided with a Novoflex Cold Light Source Macrolight Plus illuminator. The continuous source was used to focus the eye with the aid of the video output of the Canon camera. A flash lamp illuminator and ring light attached to the camera lens system provided a synchronized and uniform illumination of the corneal surface. Eyes were illuminated and images were captured through a set of filters designed for fluorescein excitation (482±35 nm) and emission (536±40 nm).
Two image files were recorded for each exposure, a JPG-format RGB (red-green-blue) file used for image display and a Canon Raw file containing the raw sensor data. The raw data was extracted to a 16-bit portable greymap file that was subsequently processed with a demosaic function to make an image of only the green pixels containing the fluorescein information. A circular region of interest (ROI) was centered on the cornea and the automated analysis was performed using RatOSIWound v 2.0 software (Alcon). Automated analysis calculated the total fluorescein positive area of a single large spot indicative of the epithelial wound. The % closure at 24 hours (indicated as “% Closure 24 hours” on the ordinate axis of the graphs in FIGS. 1 and 3) was calculated as
while the number of eyes that were totally healed (that is, had no detectable defect; indicated as “Healed 24 hours n=10” on the ordinate axis of the graphs in FIGS. 2 and 4), normalized as number/10 eyes, was also determined
Data were analyzed using an ANOVA with a Dunnett post-hoc test at a 95% confidence interval.

| SMILES | % wound closure (% Closure 24 hours) (0.5% w/v dose in PBS) | normalized number of completely healed eyes (Healed 24 hours n=10) (0.5% w/v dose in PBS) | % wound closure (% Closure 24 hours) (1% w/v dose in PBS) | normalized number of completely healed eyes (Healed 24 hours n=10) (1% w/v dose in PBS) |
| --- | --- | --- | --- | --- |
| COC(=O)CCC[C@H](O)[C@H](O)CO [compound 1] | as effective as the positive control 0.4% HA | as effective as the positive control 0.4% HA | as effective as the positive control 0.4% HA | as effective as the positive control 0.4% HA |
| O=C([O-])CCC[C@H](O)[C@H](O)CO.[Li+] [compound 5] | – | – | as effective as the positive control 0.4% HA | as effective as the positive control 0.4% HA |
